Source: PubChem BioAssay (NCI)
“And” between values parts separate entries of the source, which are not always exact repeats. Equal values may be shown once.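 Compound exposure: 48 hours, 5 concentrations, 96-well plates. At the TGI there is no net growth.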

How the values were obtained:
Experiment in all cases: growth of human tumour cells (NCI), 48 h
COLO 205 colon = tested on: COLO 205 colon
HCT-15 colon = tested on: HCT-15 colon
HT29 colon = tested on: HT29 colon
KM12 colon = tested on: KM12 colon
MCF7 breast = tested on: MCF7 breast
NCI-H226 lung = tested on: NCI-H226 lung
NCI-H23 lung = tested on: NCI-H23 lung
SK-MEL-28 melanoma = tested on: SK-MEL-28 melanoma
SK-OV-3 ovarian = tested on: SK-OV-3 ovarian
SNB-19 CNS = tested on: SNB-19 CNS
SNB-75 CNS = tested on: SNB-75 CNS
SW-620 colon = tested on: SW-620 colon
TK-10 renal = tested on: TK-10 renal
UACC-257 melanoma = tested on: UACC-257 melanoma
UACC-62 melanoma = tested on: UACC-62 melanoma
OVCAR-3 ovarian = tested on: OVCAR-3 ovarian
RXF 393 renal = tested on: RXF 393 renal
LOX IMVI melanoma = tested on: LOX IMVI melanoma

Structure (SMILES) | TGI (COLO 205 colon) [µM] | TGI (HCT-15 colon) [µM] | TGI (HT29 colon) [µM] | TGI (KM12 colon) [µM] | TGI (MCF7 breast) [µM] | TGI (NCI-H226 lung) [µM] | TGI (NCI-H23 lung) [µM] | TGI (SK-MEL-28 melanoma) [µM] | TGI (SK-OV-3 ovarian) [µM] | TGI (SNB-19 CNS) [µM] | TGI (SNB-75 CNS) | TGI (SW-620 colon) [µM] | TGI (TK-10 renal) [µM] | TGI (UACC-257 melanoma) [µM] | TGI (UACC-62 melanoma) [µM] | TGI (OVCAR-3 ovarian) [µM] | TGI (RXF 393 renal) [µM] | TGI (LOX IMVI melanoma) [µM]
O=C(/C=C/c1cccs1)c1ccc(Cl)s1 | > 10 | 35.2 | > 10 | 44.3 | > 100 | 85.1 | 51.2 | 59.3 | > 100 | 47.6 | > 100 µM | 51.7 | > 100 | > 100 | > 100 |  |  | 
COC(=O)CCSC1=CC(=O)c2nc3ccccc3c3ccnc1c23 | > 47 | 27.9 | 34.1 | 34.8 | > 50.2 | > 100 | 32 | 45.9 | > 100 | > 100 | > 100 µM | > 53.1 | 18.9 | 33 | 21.7 | 11.4 | 37.1 | 
CCC(C)C(NC(=O)c1c2ccccc2nc2ccccc12)C(=O)O (stereo not drawn) | > 100 | > 100 | > 100 | > 100 | > 100 | > 100 | > 100 | > 100 | > 100 | > 100 | > 100 µM | > 100 | > 100 | > 100 | > 100 | > 100 |  | > 100
COc1cc2c(cc1OC)CN1CCc3ccccc3CC1C2 (stereo not drawn) | > 100 | > 100 | > 100 | > 100 | > 100 | > 100 | > 100 | > 100 | > 100 | > 100 | > 100 µM | > 100 | 64.3 | > 100 | > 100 | > 100 |  | > 100
COC(=O)C(C(=O)C(=O)Nc1ccc([N+](=O)[O-])cc1)c1nc2cc(C)c(C)cc2[nH]c1=O (stereo not drawn) | > 100 | > 100 | > 100 | > 100 |  | > 100 | > 100 | > 100 | > 100 | > 100 | > 100 µM | > 100 | > 100 | > 100 | > 100 | > 100 | > 100 | > 100
CC(=O)O[C@]12CCCCC1C1(O)C(O)CCCC[C@H]12 (stereo partly drawn) | > 100 | > 100 | > 100 | > 100 |  | > 100 | > 100 | > 100 | > 100 | > 100 | > 100 µM | > 100 | > 100 | > 100 | > 100 |  | > 100 | > 100
C=CCN1C[C@@H](C)N([C@@H](c2ccccc2)c2ccc(C(=O)N(CC)CC)cc2)C[C@@H]1C | > 100 | > 100 | > 100 | > 100 | > 100 | > 100 | > 100 | > 100 | > 100 | > 100 |  | > 100 |  |  | > 100 | > 100 |  | 
CSC1CC2C(CC1(C)SC)C2(C)C (stereo not drawn) | > 100 | > 100 | > 100 | > 100 |  | 73.1 | > 100 | > 100 | > 100 | > 100 | 83.9 µM | > 100 | > 100 | 86.9 | > 100 | > 100 | > 100 | > 100
O=C(Nn1c(-c2ccccc2)nc2ccccc2c1=O)c1ccc(O)cc1 | > 100 | > 100 | > 100 | > 100 | > 100 | > 100 | > 100 | > 100 | > 100 | > 100 | > 100 µM | > 100 | > 100 | > 100 | > 100 | > 100 | > 100 | 
COC(=O)C1CCC[C@H]2C(CO)=C(C)C(=O)[C@@H]12 (stereo partly drawn) | > 100 | > 100 | > 100 | > 100 |  | > 100 | > 100 | > 100 | > 100 | > 100 | > 100 µM | > 100 | > 100 | > 100 | > 100 |  | > 100 | 
CCN(CC)CCNc1ccc2ncn3c4c(OC)ccc(=O)c4c(O)c1c23 | > 100 | > 100 | > 57.8 | > 100 | > 70.7 | > 100 | > 92.9 | 27.1 | > 100 | > 100 | > 100 µM | > 43.8 | > 100 | > 100 | > 100 | > 100 | 34.1 | 
Cc1ccc(C(O)/C(=N/N)c2nc3ccc([N+](=O)[O-])cc3[nH]c2=O)cc1 (stereo not drawn) | > 100 | > 100 | > 100 | > 100 |  | > 100 | > 100 | > 100 | > 100 | > 100 | > 100 µM | > 100 | > 100 | > 100 | > 100 | > 100 | > 100 | > 100
O=C1C=C(NCCc2cc(Cl)c(O)c(Cl)c2)C(=O)c2[nH]cnc21 | 52.7 | > 100 | > 100 | > 100 | 64.8 |  | 36.8 | 65.9 |  | > 100 |  | > 100 | > 100 | 60 | 41.1 | 47.2 |  | > 100
Cc1ccc(-c2n[nH]c(=O)n2N2C(=O)C=CC2=O)cc1 | > 100 | > 100 | > 100 |  | > 100 | > 100 | > 100 |  | > 100 |  |  |  | > 100 | > 100 | > 100 | > 100 | > 100 | 
Cc1ccc(S(=O)(=O)c2ccsc2NC(=O)c2ccccc2)cc1 | > 100 | > 100 | > 100 | > 100 | > 100 | > 100 | > 31.6 | > 100 | > 100 | > 100 | > 93.3 µM | > 100 | > 100 | > 100 | > 100 | > 100 |  | > 100
COc1cc(/C=C2/C(=O)N=C(NC(C)=O)N2C)ccc1OC(C)=O | > 100 | > 100 | > 100 | > 100 | > 100 | > 100 | > 100 | > 100 | > 100 | > 100 | > 100 µM | > 100 | > 100 | > 100 | > 100 | > 100 |  | > 100
N#Cc1nc(C2SCCCS2)oc1N |  | > 100 | > 100 | > 100 | > 100 |  |  | > 100 | > 100 | > 100 | 0.843 µM | > 100 | > 100 | > 100 | > 100 |  |  | > 100
O=C(O)c1nc2cc(C(F)(F)F)ccc2[nH]c1=O | > 100 | > 100 | > 100 | > 100 | > 100 | > 100 | > 100 | > 100 | > 100 | > 100 |  | > 100 | > 100 | > 100 | > 100 | > 100 |  | > 100
COc1cc2c(cc1OC)C1(c3ccccc3)ON=C(c3ccccc3)N1CS2 (stereo not drawn) | > 100 | > 100 | > 100 | > 100 |  | > 100 | > 100 | > 100 | > 100 | > 100 | > 100 µM | > 100 | > 100 | > 100 | > 100 | > 100 | > 100 | > 100
CC(C(=O)N1C(=O)N(C(=O)[C@H](C)C(O)c2ccccc2)[C@H](c2ccccc2)[C@H]1c1ccccc1)[C@@H](O)c1ccccc1 (stereo partly drawn) | 33.2 | > 100 | > 100 | > 100 | > 100 | > 100 | > 100 | > 100 | > 100 | > 100 | > 100 µM | > 100 | > 100 | 84.4 | 51.1 |  |  | 
Cc1ccc(Nc2cc(=O)[nH]c(=O)[nH]2)cc1CS | > 100 | > 100 | > 100 | > 100 |  | > 100 | > 100 | > 100 | > 100 | > 100 | > 100 µM | > 100 | > 100 | > 100 | > 100 | > 100 | > 100 | > 100
ClCCCC1COc2ccccc2O1 (stereo not drawn) | > 100 | > 100 | > 100 |  | > 100 | > 100 |  | > 100 | > 100 | > 100 | > 100 µM | > 100 | > 100 | > 100 | > 100 | > 100 | > 100 | 
Cc1cn(C2CC(N=[N+]=[N-])C(C(=O)O)O2)c(=O)[nH]c1=O (stereo not drawn) | > 100 | > 100 | > 100 | > 100 | > 100 | > 100 | > 100 |  | > 100 | > 100 | > 100 µM | > 100 | > 100 | > 100 | > 100 | > 100 | > 100 | 
CCN1C(=O)C(N=[N+]=[N-])(c2ccccc2)C(=O)c2ccccc21 (stereo not drawn) | > 100 | > 100 | > 100 | > 100 |  | > 100 | > 100 | > 100 | > 100 | > 100 | > 100 µM | > 100 | > 100 | > 100 | > 100 | > 100 | > 100 | > 100
COC(=O)C(CCSc1ccccc1)C(=O)OC | > 100 | > 100 | > 100 | > 100 | > 100 | > 100 | > 100 | > 100 | > 100 |  | > 100 µM | > 100 |  | > 100 | > 100 | > 100 | > 100 | 
Nc1ccn(CC(CO)CC(c2ccccc2)P(=O)(O)O)c(=O)n1 (stereo not drawn) | > 100 | > 100 | > 100 | > 100 |  | > 100 | > 100 | > 100 | > 100 | > 100 | 28.4 µM and > 100 µM | > 100 | > 100 | > 100 | > 100 | > 100 | > 100 | > 100
CN(C)C=Nc1c(Br)cc(Br)c2nonc12 | > 100 | > 100 | > 100 | > 100 | > 100 | > 100 | > 100 | > 100 | > 100 | > 100 | > 100 µM | > 100 | > 100 | > 100 | > 100 | > 100 | > 100 | 
C=CCN(c1cc(OCc2ccccc2)c2c(c1)c(C)cn2S(=O)(=O)c1ccccc1)S(C)(=O)=O | > 100 | > 100 | > 100 | > 100 |  | > 100 | > 100 | > 100 | > 100 | > 100 | > 100 µM | > 100 | > 100 | > 100 | > 100 | > 100 | > 100 | > 100
C=CCOCn1ccc(NC(=O)c2ccccc2)nc1=O | > 100 | > 100 | > 100 | > 100 | > 100 | > 100 | > 100 | > 100 | > 100 | > 100 | > 100 µM | > 100 | > 100 | > 100 | > 100 |  |  | > 100
